According to patent publication US11136597B2, “Compositions for enhancing targeted gene editing and methods of use thereof” (Yale University, priority 2016, dated 2021):

How the values were obtained:
[1] = tested on: IVS2-654 (C→T) mutation within the β-globin/GFP fusion gene; test: Ex vivo gene correction (% GFP+ cells, flow cytometry) in bone marrow cells from β-globin/GFP transgenic mice; format: cell-based, mouse; details: total bone marrow cells, 2 mg/ml PLGA NPs with donor DNA, 48 hr
Text: To assay for gene editing in a robust and quantitative manner, a transgenic mouse model was utilized with a β-globin/GFP fusion transgene of human β-globin intron 2 carrying a thalassemia-associated IVS2-654 (C→T) mutation embedded within the GFP coding sequence, resulting in incorrect splicing of β-globin/GFP mRNA and lack of GFP expression (Sazani, et al., Nat. Biotechnol., 20:1228-1233 (2002)). PNA-mediated triplex-formation induces DNA repair and recombination of the genomic site with a 60-nucleotide sense donor DNA that is homologous to a portion of the β-globin intron 2 sequence except for providing a wild-type nucleotide at the IVS2-654 position. Via recombination, the splice-site mutation is corrected and expression of functional GFP occurs (FIG. 1A) (McNeer, et al., Gene Therapy, 20:658-669 (2013); Bahal, et al., Curr. Gene Ther., 14:331-342 (2014)). […]
BD Bioscience kit catalog #558451 (BDImag™ Hematopoietic Progenitor Stem Cell Enrichment Set—DM) was used to isolate CD117 cells. […] To quantify GFP expression, after CD117 co-labelling, flow cytometry was performed using FACScaliburS by resuspending cells in PBS/1% FBS where green fluorescent cells are measured in the Fl1 channel and APC stained cells are in the Fl4 channel Antibodies for other markers were Ter119 (BD Pharmingen™ catalog #561033) and CD45 APC (BD Pharmingen™ catalog #561018).

[2] = tested on: 120 bp double-stranded DNA fragments containing β-globin sequences; test: Gel mobility shift assay of SCD tcPNAs; format: binding, human; details: physiological conditions
Text: Each 120 bp dsDNA contained the binding site for the respective tcPNAs.

[3] = tested on: 120-bp DNA duplexes containing the respective target sequences (β-globin intron 2); test: DNA binding gel shift assay of tcPNAs; design: species or system human; details: 120-bp dsDNA, 37 C, 10 mM NaPi pH 7.4
Procedure: For gel electrophoresis, synthetic 120 bp dsDNA targets were incubated with indicated oligomers at 37 C in low ionic strength buffer (10 mM NaPi, pH 7.4). The samples were separated on 10% non-denaturing polyacrylamide gels in 1×TBE buffer. The gels were run at […] for 1.5 hr. After electrophoresis, the gels were stained with 1×SYBR-Gold (catalog #S11494, Invitrogen) for 10 min, washed 2× with 1×TBE buffer, and then imaged using a gel documentation system (BioDoc-It System). The images were then inverted using Adobe Photoshop 6.0.

[4] = tested on: skin fibroblasts from β-globin/GFP mice, IVS2-654 (C→T) mutation; test: GFP/beta globin gene correction assay in mouse skin fibroblasts with DNA repair or other small molecule inhibitors; format: cell-based; details: inhibitor given 48 hours before tcPNA1 + donor DNA nanoparticles, flow cytometry 72 hours later
Procedure: Skin fibroblasts were isolated from the β-globin/GFP mice (intron 2 of human β-globin inserted with in the GFP coding regions) and grown in culture in DMEM medium plus 10% FCS. The intron contains the IVS2-654 (C→T) mutation. The gene correction assay is illustrated in FIG. 5A.
The fibroblasts were treated ex vivo with nanoparticles containing tcPNA1+ Donor DNA and 72 hours later flow cytometry analysis was performed to quantify the % gene correction based on the frequency of GFP positive cells. In some cases, DNA repair inhibitors or other small molecule inhibitors were given 48 hours before the nanoparticle treatment.

[5] = tested on: CD117+ cells from β-globin/GFP transgenic mice; test: Ex vivo gene editing in pre-sorted CD117+ cells with or without SCF or c-Kit pathway kinase inhibitors; format: cell-based, mouse; details: for gene editing frequency in pre-sorted CD117+ cells in presence of kinase inhibitor: γtcPNA4/donor DNA NPs plus inhibitor: dasatinib 200 nM, MEK162 1.0 μM, BKM120 3.0 μM
Procedure: For CD117+ cell experiments, Iscove's Modified Dulbecco's Media (IMDM) media containing insulin (10 ng/ml), FCS (10%) and erythropoietin (1 U/ml) was used to culture CD117+ cells after isolation using magnetic separation. Where indicated, 3 μg/ml of SCF (Recombinant murine SCF, catalog #250-03, PeproTech, Rocky Hill, N.J.;) was added prior to nanoparticle treatment. 2 mg/ml of NPs were used to treat 50,000-100,000 CD117+ cells in triplicate for 48 hrs in the above media, followed by flow cytometry analyses as above. Inhibitors were used at concentrations of 200 nM (dasatinib), 1.0 μM (MEK162) and 3.0 μM (BKM120). Dasatanib was obtained from Cayman Chemical (Ann Arbor, Mich.; item #11498) and dissolved according to manufacturer's protocol. MEK162 and BKM120 were obtained from Dr. Harriet Kluger, Yale University.
BD Bioscience kit catalog #558451 (BDImag™ Hematopoietic Progenitor Stem Cell Enrichment Set—DM) was used to isolate CD117 cells. Enrichment for CD117 was confirmed by flow cytometry. CD117+ enriched cells were labeled with CD117-APC (BD Pharmingen™ catalog #558451) antibody. Cells were co-labelled with control IgG antibody (BD Pharmingen™ catalog #555746) for gating purposes. To quantify GFP expression, after CD117 co-labelling, flow cytometry was performed using FACScaliburS by resuspending cells in PBS/1% FBS where green fluorescent cells are measured in the Fl1 channel and APC stained cells are in the Fl4 channel Antibodies for other markers were Ter119 (BD Pharmingen™ catalog #561033) and CD45 APC (BD Pharmingen™ catalog #561018).
To explore the mechanism of the increased gene editing in CD117+ cells, the requirement of c-Kit-dependent signaling for elevated gene correction or whether CD117 simply serves as a marker for the increased susceptibility to gene editing was distinguished. To do this, γtcPNA4/donor DNA NP-mediated gene editing was assayed in pre-sorted CD117+ cells in the presence or absence of selected kinase inhibitors (FIG. 2D). Dasatinib, which inhibits the c-Kit kinase in addition to the BCR/Abl and Src kinases, reduced the gene editing from 7% to 2.0%.

[6] = tested on: homology-dependent repair (HDR); test: Luciferase reporter gene assay for homology-dependent repair (HDR) in CD117+ cells; format: cell-based, mouse; details: CD117+ cells
Procedure: An inactivating I-Sce1 site was cloned 56 amino acids into the firefly luciferase open reading frame under the control of a CMV promoter. The reporter construct also contains a promoterless luciferase gene used as a template for homologous recombination. A double-strand break in the luciferase reporter is created by in vitro digestion with the I-Sce I restriction enzyme (NEB #R0694L). Plasmid DNA was digested with I-Sce 1 for 1 hour at 37° C. at a ratio of 10 units enzyme to 1 μg DNA and then the enzyme was inactivated at 65° C. for 20 minutes. The linearization of the plasmid was confirmed for each digestion via gel electrophoresis and the linear plasmid was purified using the Qiagen Qiaquick spin columns. After separation CD117+ and CD117-cells from bone marrow of β-globin/GFP transgenic mice, cells were transfected using the Lonza 2b Nucleofector Device. 5×10^5 cells were transfected with 1 μg of either the luciferase reporter vector or a positive control firefly luciferase expression vector, along with 50 ng of a renilla luciferase expression plasmid as a transfection efficiency control. All transfections were performed in triplicate. After transfection the cells were plated at a density of 5×10^5 cells/ml in 12-well plates. After 24 hours incubation post transfection, luciferase activity was measured using the Promega Dual Luciferase Assay Kit. In each sample firefly luciferase activity was normalized to the renilla luciferase transfection control. Reporter reactivation was calculated as a ratio of normalized firefly luciferase activity in the cells transfected with the reporter plasmid to the positive control.
To test whether the above increases in DNA repair gene expression could be correlated with functional differences in DNA repair, a luciferase-based assay was used to quantify repair of DNA double-strand breaks (DSBs) by HDR. In this assay, repair of a DSB in a reporter plasmid via intramolecular homologous recombination creates (“reactivates”) a functional luciferase gene (FIG. 2H), and so the assay provides a measure of HDR capacity (FIG. 2J).

In the case of “H-KKK-JTTTJTTTJTJT-OOO-TCTCTTTCTTTCAGGGCA-KKK-NH2 (NTTTNTTTNTNTTCTCTTTCTTTCAGGGCA; miniPEG γ units, lysine caps, amide, chemistry not fully specified) [γtcPNA4]”, the “genome modification frequency (% GFP+ cells)” value [1] is reported as 1.62%.
For “H-KKK-TJTJTTJT-OOO-TCTTCTCTGTCTCCACAT-KKK-NH2 (TNTNTTNTTCTTCTCTGTCTCCACAT; listed as DNA, chemistry not fully specified) [SCD-tcPNA 3]”, the “binding to 120 bp double-stranded DNA fragments (gel mobility shift)” value (from here on “binding … (gel mobility shift)”) [2] was “binding”.
In the case of “H-KKK-JJTJTTJ-OOO-CTTCTCCACAGGAGTCAG-KKK-NH2 (NNTNTTNCTTCTCCACAGGAGTCAG; listed as DNA, chemistry not fully specified) [SCD-tcPNA 1]”, the “binding … (gel mobility shift)” value [2] is reported as “binding”.
With “H-KKK-TTJTTTJTTJTJ-OOO-CTCTTCTTTCTTGACAGG-KKK-NH2 (TTNTTTNTTNTNCTCTTCTTTCTTGACAGG; lysine caps, linker, C-terminal amide, chemistry not fully specified) [γtcPNA4-Scr, scrambled version of γtcPNA4 with the same base composition]” the “binding to target site in duplex DNA (gel shift)” value [3] was “No binding” and the “genome modification frequency (% GFP+ cells)” value [1] was “no modification”.
For `O=C(c1cc(Cc2n[nH]c(=O)c3ccccc23)ccc1F)N1CCN(C(=O)C2CC2)CC1` [AZD-2281], the “effect on gene editing (% gene correction, GFP positive cells)” value [4] was “boosts gene editing”.
For `CC(C)c1cc(-c2n[nH]c(=O)n2-c2ccc3c(ccn3C)c2)c(O)cc1O` [STA-9090/Ganetespib], the “effect on gene editing (% gene correction, GFP positive cells)” value [4] was “enhances gene editing”.
With `C[C@@]1(CO)[C@H](O)CC[C@@]2(C)[C@H]1CC[C@H]1C[C@@H]3C[C@@]12CC[C@]3(O)CO` [aphidicolin] the “effect on gene editing (% gene correction, GFP positive cells)” value [4] was “boosts gene editing”.
`Nc1cc(C(F)(F)F)c(-c2cc(N3CCOCC3)nc(N3CCOCC3)n2)cn1` [BKM120, reference compound] was tested, and the “gene editing frequency in pre-sorted CD117+ cells in presence of kinase inhibitor” value (shortened to “gene editing frequency … of kinase inhibitor”) [5] was 4.1% and the “HDR repair activity (luciferase reactivation) in CD117+ cells” value [6] was “diminished”.
`Cn1cnc2c(F)c(Nc3ccc(Br)cc3F)c(C(=O)NOCCO)cc21` [MEK162, reference compound] was tested, and the “gene editing frequency … of kinase inhibitor” value [5] was 2.6% and the “HDR repair activity (luciferase reactivation) in CD117+ cells” value [6] was “diminished”.
“H-KKK-TTJJTJT-OOO-TCTCCTTAAACCTGTCTT-KKK-NH2 (TTNNTNTTCTCCTTAAACCTGTCTT; listed as DNA, chemistry not fully specified) [SCD-tcPNA 2]” was tested, and the “binding … (gel mobility shift)” value [2] was “binding”.
`Cc1nc(Nc2ncc(C(=O)Nc3c(C)cccc3Cl)s2)cc(N2CCN(CCO)CC2)n1` [Dasatinib] was tested, and the “fold reduction of gene editing frequency” value ([5]; CD117+ cells, inhibition of c-Kit kinase) was about 4 fold and the “gene editing frequency … of kinase inhibitor” value [5] was 2.0%.
